Laboratory results published in patent US11492335B2, “Aryl or heteroaryl triazolone derivatives or salts thereof, or pharmaceutical compositions comprising the same” (YUHAN CORPORATION, priority 2018, dated 2022).
Structures can show the parent of a compound that is named as a salt. Where two headings read alike, the source gives them in different places.

Key:
Assay type in all cases: biochemical
[1] = target: T1, recombinant human VAP-1 (Homo sapiens, UniProt Q16853); experiment: Activity on recombinant human VAP-1, Amplex Red HRP-coupled hydrogen peroxide assay, benzylamine substrate; conditions: recombinant human VAP-1, benzylamine substrate, read-out: Inhibitory Activity (IC50, nM) human VAP-1
T1 construct: purchased R&D systems
T1 sequence (Q16853 1-763): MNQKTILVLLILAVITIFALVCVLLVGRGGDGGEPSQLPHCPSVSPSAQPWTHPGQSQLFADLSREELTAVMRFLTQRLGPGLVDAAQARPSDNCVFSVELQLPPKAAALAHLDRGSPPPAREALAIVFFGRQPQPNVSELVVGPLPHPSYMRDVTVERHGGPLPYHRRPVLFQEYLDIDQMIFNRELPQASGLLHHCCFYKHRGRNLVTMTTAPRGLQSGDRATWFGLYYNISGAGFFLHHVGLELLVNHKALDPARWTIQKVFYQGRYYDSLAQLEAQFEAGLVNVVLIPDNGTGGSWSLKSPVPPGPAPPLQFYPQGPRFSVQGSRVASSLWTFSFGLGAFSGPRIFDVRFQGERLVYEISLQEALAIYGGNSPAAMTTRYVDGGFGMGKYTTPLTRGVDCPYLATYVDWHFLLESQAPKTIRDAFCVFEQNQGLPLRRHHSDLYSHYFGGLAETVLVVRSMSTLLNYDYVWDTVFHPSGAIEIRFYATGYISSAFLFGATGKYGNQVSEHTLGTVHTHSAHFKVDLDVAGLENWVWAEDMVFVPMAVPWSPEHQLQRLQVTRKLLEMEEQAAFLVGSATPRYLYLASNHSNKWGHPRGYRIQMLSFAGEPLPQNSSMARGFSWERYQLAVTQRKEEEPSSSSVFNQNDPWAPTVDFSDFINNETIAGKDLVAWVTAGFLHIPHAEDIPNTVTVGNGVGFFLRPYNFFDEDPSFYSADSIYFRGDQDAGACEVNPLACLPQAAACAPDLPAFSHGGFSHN
Method in brief: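 Enzyme in 50 mM sodium phosphate (pH 7.4) is exposed to test compound for 30 min at 37 °C. Benzylamine (1 mM) with HRP and Amplex Red then starts the reaction, and the fluorescence rate, relative to a DMSO-only control, gives IC50.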

[2] = target: T2, recombinant human MAO-A (monoamine oxidase-A) (Homo sapiens, UniProt P21397); experiment: Activity on recombinant human MAO-A, Amplex Red method, 0.5 mM tyramine substrate; conditions: read-out: Inhibitory Activity (IC50, nM) MAO-A
T2 construct: purchased Sigma-Aldrich
T2 sequence (P21397 1-527): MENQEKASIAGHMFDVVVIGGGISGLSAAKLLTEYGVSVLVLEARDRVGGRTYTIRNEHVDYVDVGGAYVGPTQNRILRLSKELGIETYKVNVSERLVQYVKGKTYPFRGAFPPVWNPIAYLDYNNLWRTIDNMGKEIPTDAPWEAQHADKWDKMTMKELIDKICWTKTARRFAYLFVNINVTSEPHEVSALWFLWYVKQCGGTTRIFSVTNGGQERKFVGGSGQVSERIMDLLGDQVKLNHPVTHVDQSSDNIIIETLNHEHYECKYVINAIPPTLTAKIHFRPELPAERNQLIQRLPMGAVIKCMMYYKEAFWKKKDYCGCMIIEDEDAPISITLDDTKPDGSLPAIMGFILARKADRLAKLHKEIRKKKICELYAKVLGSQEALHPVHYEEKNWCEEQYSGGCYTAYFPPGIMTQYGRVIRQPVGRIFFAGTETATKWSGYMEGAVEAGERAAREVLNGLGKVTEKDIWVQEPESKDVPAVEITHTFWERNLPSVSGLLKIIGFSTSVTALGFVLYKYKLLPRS
Method in brief: (§1)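 Enzyme in pH 7.4 phosphate buffer; 30 min, 37° C with compound (DMSO <1%); start with 200 uM Amplex Red + 1 U/mL HRP + tyramine 0.5 mM (MAO-A) or benzylamine 1 mM (MAO-B); kinetic read ex 544/em 590, 1-2 h; % rate decrease vs DMSO control → IC50, 4-parameter fit.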

[3] = target: T3, recombinant human MAO-B (monoamine oxidase-B) (Homo sapiens, UniProt P27338); experiment: Activity on recombinant human MAO-B, Amplex Red method, 1 mM benzylamine substrate; conditions: read-out: Inhibitory Activity (IC50, nM) MAO-B
T3 construct: purchased Sigma-Aldrich
T3 sequence (P27338 1-520): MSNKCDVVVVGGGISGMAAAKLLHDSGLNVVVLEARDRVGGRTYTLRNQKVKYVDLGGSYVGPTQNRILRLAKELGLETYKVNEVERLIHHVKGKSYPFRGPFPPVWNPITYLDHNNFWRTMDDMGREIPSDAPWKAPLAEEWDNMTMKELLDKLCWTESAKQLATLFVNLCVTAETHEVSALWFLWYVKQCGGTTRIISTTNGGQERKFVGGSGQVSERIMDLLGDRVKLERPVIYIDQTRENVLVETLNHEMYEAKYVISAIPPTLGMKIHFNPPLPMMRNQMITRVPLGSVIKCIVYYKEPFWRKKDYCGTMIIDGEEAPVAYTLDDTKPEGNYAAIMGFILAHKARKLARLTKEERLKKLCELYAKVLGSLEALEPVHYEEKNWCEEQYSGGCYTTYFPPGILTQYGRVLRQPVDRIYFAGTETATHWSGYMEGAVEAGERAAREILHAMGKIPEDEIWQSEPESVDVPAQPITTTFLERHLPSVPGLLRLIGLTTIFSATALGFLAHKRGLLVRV
Method in brief: as §1

[4] = target: T4, recombinant human DAO (diamine oxidase) (Homo sapiens, UniProt P19801); experiment: Activity on recombinant human DAO, Amplex Red method, 1 mM putrescine substrate
T4 construct: purchased R&D systems
T4 sequence (P19801 20-751): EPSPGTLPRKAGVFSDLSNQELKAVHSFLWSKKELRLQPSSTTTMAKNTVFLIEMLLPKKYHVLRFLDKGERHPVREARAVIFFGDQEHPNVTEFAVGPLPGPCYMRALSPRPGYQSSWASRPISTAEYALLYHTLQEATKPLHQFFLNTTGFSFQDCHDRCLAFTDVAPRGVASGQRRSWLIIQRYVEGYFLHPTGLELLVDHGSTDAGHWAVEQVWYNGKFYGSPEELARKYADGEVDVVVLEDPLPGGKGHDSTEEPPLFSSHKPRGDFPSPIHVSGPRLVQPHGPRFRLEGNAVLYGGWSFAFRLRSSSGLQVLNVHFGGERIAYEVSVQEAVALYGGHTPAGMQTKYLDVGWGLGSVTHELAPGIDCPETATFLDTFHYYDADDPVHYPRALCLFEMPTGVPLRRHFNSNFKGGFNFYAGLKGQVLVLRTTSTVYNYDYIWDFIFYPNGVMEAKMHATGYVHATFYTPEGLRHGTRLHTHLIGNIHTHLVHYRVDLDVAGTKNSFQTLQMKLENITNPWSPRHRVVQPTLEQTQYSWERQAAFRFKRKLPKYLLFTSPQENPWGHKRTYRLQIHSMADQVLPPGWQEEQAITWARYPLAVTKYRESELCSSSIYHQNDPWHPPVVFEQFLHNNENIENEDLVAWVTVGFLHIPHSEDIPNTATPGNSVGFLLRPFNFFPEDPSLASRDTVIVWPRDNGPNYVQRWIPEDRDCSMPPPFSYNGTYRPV
Method in brief: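 Inhibition of recombinant human DAO (diamine oxidase, R&D systems) was assessed with the Amplex Red Hydrogen Peroxide Assay Kit. Hydrogen peroxide produced from 1 mM putrescine was detected through an HRP-coupled reaction that converts Amplex Red into fluorescent resorufin, read at 544 nm excitation and 590 nm emission. IC50 values came from four-parameter logistic fits in GraphPad Prism.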

[5] = recombinant human DAO, 1 mM putrescine, * = between 10 and 100 nM, ** = between 300 and 1000 nM, read-out: Inhibitory Activity (IC50, nM) DAO
[6] = recombinant human DAO, 1 mM putrescine substrate, read-out: Inhibitory Activity (IC50, nM) DAO

Compound	IC50 ([1]; 30 min preincubation at 37° C.) [nM]	IC50 ([2]; 0.5 mM tyramine) [nM]	IC50 ([3]; 1 mM benzylamine) [nM]	IC50 [4, 5] [nM]	IC50 [4] [nM]	IC50 [1] [nM]	IC50 ([2]; 0.5 mM tyramine substrate) [nM]	IC50 ([3]; 1 mM benzylamine substrate) [nM]	IC50 [4, 6] [nM]	Inhibitory Activity (IC50, nM) DAO ([4]; recombinant human DAO, 1 mM putrescine, * = between 10 and 100 nM, ** = between 300 and 1000 nM)
NC/C(=C\F)Cn1ncn(-c2ccc(Br)cn2)c1=O [Example 30, 2-[(2E)-2-(aminomethyl)-3-fluoroprop-2-en-1-yl]-4-(5-bromopyridin-2-yl)-2,4-dihydro-3H-1,2,4-triazol-3-one hydrochloride]	0.61	1900	1700	13	–	–	–	–	–	–
Cc1cc(-c2ccc3sc(N)nc3c2)ncc1-n1cnn(C/C(=C/F)CN)c1=O [Example 127, 4-[6-(2-amino-1,3-benzothiazol-5-yl)-4-methylpyridin-3-yl]-2-[(2E)-2-(aminomethyl)-3-fluoroprop-2-en-1-yl]-2,4-dihydro-3H-1,2,4-triazol-3-one]	1.6	> 100000	617	< 100	–	–	–	–	–	–
CS(=O)(=O)c1ccc(-c2cccc(-c3cccc(-n4cnn(C/C(=C/F)CN)c4=O)c3)c2)cc1 [Example 67, 2-[(2E)-2-(aminomethyl)-3-fluoroprop-2-en-1-yl]-4-[4″-(methylsulfonyl)-1,1′:3′,1″-terphenyl-3-yl]-2,4-dihydro-3H-1,2,4-triazol-3-one]	0.77	> 100000	> 10000	11	–	–	–	–	–	–
Cc1cc(-n2cnn(C/C(=C/F)CN)c2=O)cnc1-c1ccc(-c2nc[nH]n2)cc1 [Example 115, 2-[(2E)-2-(aminomethyl)-3-fluoroprop-2-en-1-yl]-4-{5-methyl-6-[4-(1H-1,2,4-triazol-3-yl)phenyl]pyridin-3-yl}-2,4-dihydro-3H-1,2,4-triazol-3-one]	1.5	> 100000	980	< 100	–	–	–	–	–	–
NC/C(=C\F)Cn1ncn(-c2cccc(C3=CCNCC3)c2)c1=O [Example 48, 2-[(2E)-2-(aminomethyl)-3-fluoroprop-2-en-1-yl]-4-[3-(1,2,3,6-tetrahydropyridin-4-yl)phenyl]-2,4-dihydro-3H-1,2,4-triazol-3-one dihydrochloride]	0.56	> 100000	> 10000	–	0.79	–	–	–	–	–
CS(=O)(=O)c1ccc(-c2cnc(-n3cnn(C/C(=C\F)CN)c3=O)s2)cc1 [Example 226, 2-[(2Z)-2-(aminomethyl)-3-fluoroprop-2-en-1-yl]-4-{5-[4-(methylsulfonyl)phenyl]-1,3-thiazol-2-yl}-2,4-dihydro-3H-1,2,4-triazol-3-one hydrochloride]	–	–	–	–	–	1.4	> 100000	11.4	< 100	–
Cc1cc(-c2cccc(-c3nnc[nH]3)c2)cnc1-n1cnn(C/C(=C/F)CN)c1=O [Example 137, 2-[(2E)-2-(aminomethyl)-3-fluoroprop-2-en-1-yl]-4-{3-methyl-5-[3-(4H-1,2,4-triazol-3-yl)phenyl]pyridin-2-yl}-2,4-dihydro-3H-1,2,4-triazol-3-one]	0.5	34000	3790	120	–	–	–	–	–	–
CC(=O)Nc1ccc(-c2cccc(-n3cnn(C/C(=C/F)CN)c3=O)c2C)cc1 [Example 107, N-(3′-{1-[(2E)-2-(aminomethyl)-3-fluoroprop-2-en-1-yl]-5-oxo-1,5-dihydro-4H-1,2,4-triazol-4-yl}-2′-methylbiphenyl-4-yl)acetamide]	2.8	> 100000	> 10000	–	–	–	–	–	–	no inhibitory
CC(=O)Nc1cc(-c2ccnc(-n3cnn(C/C(=C/F)CN)c3=O)c2)ccn1 [Example 168, N-(2′-{1-[(2E)-2-(aminomethyl)-3-fluoroprop-2-en-1-yl]-5-oxo-1,5-dihydro-4H-1,2,4-triazol-4-yl}-4,4′-bipyridin-2-yl)acetamide]	–	–	–	–	–	0.39	> 100000	159	< 30	–
